Reference: publication PMC9874818 (Archiv Der Pharmazie, 2022)
Starred links: 1 amine or outer side, 2 acyl side, 3 side chain; linkers in the order of their positions; H or OH if unused. Residues, ends and D or L forms follow the SMILES beside them. CO = O=C([*:1])[*:2]

Test system: SARS‐CoV‐2 spike (delta/omicron variant) pseudotyped particle
Assay: microbe, parasite or virus in culture
Type: cell-based
Settings: for EC50: Severe acute respiratory syndrome coronavirus 2, A549-hACE2-TMPRSS2, read-out: EC50 SARS-CoV-2 entry inhibition
[1] = Severe acute respiratory syndrome coronavirus 2, A549-hACE2-TMPRSS2, read-out: SARS-CoV-2 viral entry inhibition

Row | SMILES | EC50 [nM] | inhibition at 50 µM [1] [%] | inhibition at 100 µM [1] [%]
1 | CN(C)C(=O)COC(=O)Cc1ccc(OC(=O)c2ccc(NC(=N)N)cc2)cc1 [camostat] | 980 | 97 | –
2 | CC(C)[C@H](NC(=O)[C@H](CCCNC(=N)N)NC(=O)N[C@@H](Cc1ccccc1)C(=O)O)C(=O)N[C@H](C=O)CCCNC(=N)N [antipain, L‐Phe‐CO‐L‐Arg‐L‐Val‐L‐Arg‐H] ({Phe-CO}-Arg-Val-Arg-aldehyde) | – | – | 81
3 | CN1C2CCC1CC(OC(c1ccc(F)cc1)c1ccc(F)cc1)C2 (stereo not shown) [AHN 1‐055, difluorobenztropine] | > 50000 | – | –
